# Values quoted from earlier work, collected in patent US5391753A, “Heteroaryl substituted phenylethenyl compounds having retinoid-like biological activity” (Allergan, Inc., priority 1993, dated 1995).
# Tested on: TPA induced ODC activity (ornithine decarboxylase)
# Settings: qualitative statement on retinoic acid, background
smiles,measurement,value
CC1=C(/C=C/C(C)=C/C=C/C(C)=C/C(=O)O)C(C)(C)CCC1 [Retinoic acid],inhibition of induction of ODC activity by TPA,inhibits this induction of ODC activity by TPA
